Data taken from US9186344B2, “Glycogen or polysaccharide storage disease treatment method” (Baylor Research Institute, priority 2004, dated 2015).

What was measured:
[1] = system: adult-onset GSD II (acid maltase deficiency) patient; test: Clinical course and pCO2 on triheptanoin diet, Example 1 patient; format: in vivo, human
Source text: During the subsequent 2 years, the patient experienced progressive muscle weakness, affecting strength and endurance, swallowing and producing urgency for urination and defecation. The patient's breathing became a major issue and weight had decreased from ˜127 to 101 lbs (46 Kg) over this interval. […] Home O2 was started and upon respiratory arrest was intubated and unsuccessfully extubated leading to emergency admission lasting one month. Following informed consent, the patient agreed to enter an approved Institutional Review Board (IRB) Protocol for dietary therapy with triheptanoin oil.
Clinical and Biochemical Course on Therapy. […] Esophageal dysmotility was documented. A percutaneous endoscopic gastrostomy (PEG) was placed on the sixth hospital day.
The diet was based on vivonex and ˜1500 Kcal was given by nasogastric tube, on admission. […] Total caloric intake was raised from ˜1500 to 1700 to 1900 per day with these dietary changes during […] 33 day admission.
The patient began ambulating by the 10th day that improved steadily, showering with assistance by the 28th day. Pneumonia on day 17 responded to therapy and was extubated on day 23. They were discharged on bilevel positive airway pressure (BIPAP), the C7 diet, and carnitine supplement.

[2] = system: adult-onset GSD II patient; test: Urinary organic acids / blood acylcarnitines, Example 1 patient; format: in vivo, human; settings: C7 increased from 26 to 40% of total caloric intake (1.0 to 2.0 gm/Kg/day)
Description: (§1) Organic Acids may be measured as follows. Organic acids in urine specimens are determined with isolation by Liquid Partition Chromatography (LPC) and quantitative Gas Chromatography-Mass Spectrometry (GCMS) using an internal standard. The specimen is derivatized to form pentafluorobenzyl oximes (PFBO) of oxo-acids and the organic acids isolated by Liquid Partition chromatography on silicic acid hydrated with dilute sulfuric acid and eluted with mixtures of tert-Amyl alcohol and chloroform. After drying, the organic acids are derivatized to form volatile trimethylsilyl (TMS) derivatives for separation by capillary Gas Chromatography (GC) with temperature programming. Detection is by Mass Spectrometry (MS) with identification of the organic acids by their mass spectra. Organic acids are quantified by peak areas of reconstructed ion chromatograms with internal standards and calibration curves.
Acylcarnitine Profiles. […] An automated sample introduction system delivers the samples to the electrospray tandem mass spectrometer (ESI-MS/MS) operating in the multiple channel analysis mode in which acylcarnitines are identified, profiled, and quantified with stable isotopically labeled internal standards. This test also provides quantification of free, sum of acylcarnitines, and total carnitine levels. […]

[3] = system: GSDII patient; test: Urinary organic acids, blood acylcarnitines and plasma amino acids, Example 2 patient; format: in vivo, human; settings: thirteen hours after initiating the C7 diet
Description: as §1
(§2) Acylcarnitine Profiles. Acylcarnitines and carnitine levels in dried blood spots (dbs), plasma and amniotic fluid by automated electrospray tandem mass spectrometry Acylcarnitines are extracted from blood spots, plasmas and amniotic fluid with methanol containing stable isotopically labeled internal standards. The extract is derivatized to form butyl esters. An automated sample introduction system delivers the samples to the electrospray tandem mass spectrometer (ESI-MS/MS) operating in the multiple channel analysis mode in which acylcarnitines are identified, profiled, and quantified with stable isotopically labeled internal standards. This test also provides quantification of free, sum of acylcarnitines, and total carnitine levels.
Citrate supplementation was continued throughout the treatment.

[4] = Blood acylcarnitine profile after triheptanoin via nasogastric tube; format: in vivo, horse
Source text: as §2
Horses: Eight healthy, fit 4 year old thoroughbred geldings may be used in a study. These horses are all sound and trained to the treadmill. The ability of horses to absorb and digest C7 oil was first determined.

[5] = system: FOD patients (CPT I, CACT, CPT II, VLCAD, TFP, LCHAD, SCAD deficiency); test: Odd chain fatty acid (triheptanoin) diet in patients with mitochondrial fat oxidation defects (FOD); format: in vivo, human; settings: for Patient mortality / Patient mortality (deaths/patients): C7 Diet
Source text: Other examples of FODs that derive from errors in metabolism include: Carnitine Palmitoyl Transferase I (CPT I) deficiency, Carnitine-Acylcarnitine Translocase (CACT) deficiency, Carnitine Palmitoyl Transferase […] deficiency, very long chain acyl-CoA dehydrogenase (VLCAD) deficiency, Trifunctional Protein (TFP) deficiency, long chain acyl 3-hydroxy CoA dehydrogenase (LCHAD) and short chain acyl CoA dehydrogenase (SCAD) deficiency. Patients having each of these diseases were located and placed on an odd chain fatty acid diet, with informed consent and following under IRB.
The odd chain fatty acid diet and therapy of the present invention was compared to conventional treatments, which include: (1) a low fat, high carbohydrate diet; avoid fasting; frequent or continuous feeding and night time corn starch; or (2) a medium chain triglyceride (MCT oil) for long chain disorders; or (3) insulin and glucose to inhibit lipolysis. However, current treatments fail to treat the hypoglycemia and hepatomegaly (which often persist), the frequency and severity of Rhabdomyolysis; muscle weakness and fatigue are not improved and heart function often remains abnormal. Biochemically, the failure of existing therapies leave patients with impaired Acetyl-CoA production and ketogenesis, there remains an increase Acyl-CoA:CoA (mitochondrion) ratio during illness, a decreased NADH:NAD ratio during illness (mitochondrion), hypoglycemia and hyperammonemia.
Table 4 summarized a comparison of patent mortality for patients with FOD of conventional treatment (based on the literature, see *Neonatal onset; Conventional Diet Rx: JIMD 22: 488,1999), and the odd chain fatty acids of the present invention. There is a demonstrable increase in patient survival across a number of FODs.

[6] = on C7 diet and carnitine supplement
[7] = dietary triheptanoin supplementation, FOD patients

Structure (SMILES): CCCCCCC(=O)OCC(COC(=O)CCCCCC)OC(=O)CCCCCC [C7, triheptanoin]
- pCO2 (35-45) ([1]; Hospital Day 1, C7 26% Kcal): 43
- pCO2 (35-45) ([1]; Hospital Day 4, C7 35% Kcal): 51
- pCO2 (35-45) ([1]; Hospital Day 7, C7 35% Kcal): 42
- pCO2 (35-45) ([1]; Hospital Day 23, C7 40% Kcal, extubated): 48
- pCO2 (35-45) ([1]; Hospital Day 33, C7 40% Kcal, discharge): 44
- gastrostomy feeds stopped (swallowing improved) ([1]; after discharge): 7 months
- patient weight ([1]; by 15 months post-discharge, 46 Kg on admission): 60 kg
- day of extubation ([1]; hospital admission on C7 diet): 23 days
- return to work half-time after discharge [1, 6]: 5 weeks
- working full-time after discharge [1, 6]: ≤ 10 weeks
- full vital capacity ([1]; post-discharge follow-up): 40-45 % of predicted
- urgency for urination and defecation ([1]; within 13 hours of beginning the C7 diet): had ceased and remained normal for the rest of the admission
- pCO2 ([1]; within 13 hours of beginning the C7 diet, fell from 68, normal 35-45): 43
- propionyl overload from the metabolism of heptanoate [2]: without any evidence for propionyl overload
- increase of plasma BCAA's [3]: ~2 fold
- increase of plasma Glutamine [3]: ~2 fold
- increase of plasma alanine level [3]: 4 fold
- time of peak of C7 acyl carnitine ([4]; 0.5 gm/kg via nasogastric tube, fasted 12 hours, three horses): 90 min
- time of peak serum concentration of C3 acylcarnitine ([4]; in vivo): 120 min
- time of peak serum concentration of C5 acylcarnitine ([4]; in vivo): 120 min
- Patient mortality ([5]; CACT, neonatal onset): 100%
- Patient mortality (deaths/patients) ([5]; CACT, neonatal onset): 1/1
- retinopathy (Choroideremia) ([5]; LCHAD patients): unchanged
- Patient mortality ([5]; LCHAD): 0%
- Patient mortality (deaths/patients) ([5]; LCHAD): 0/9
- peripheral neuropathy ([5]; TFP patients): unchanged
- Patient mortality ([5]; TFP): 0%
- Patient mortality (deaths/patients) ([5]; TFP): 1/5
- Patient mortality ([5]; VLCAD): 5%
- Patient mortality (deaths/patients) ([5]; VLCAD): 1/19
- Rhabdomyolysis [5, 7]: marked attenuation of Rhabdomyolysis
- cardiomyopathies [5, 7]: cardiomyopathies were resolved
- glucose homeostasis [5, 7]: normal glucose homeostasis was observed
- hepatomegaly [5, 7]: elimination of hepatomegaly
- mortality [5, 7]: reduced mortality
- muscle strength and endurance [5, 7]: improved muscle strength and endurance
- CPK (creatine kinase) levels ([5]; long-chain defects, FIG. 9): rapidly suppresses CPK levels
